Data as given in patent US20210094954A1, “PREPARATION METHODS AND APPLICATIONS OF 3,5-DISUBSTITUTED METHYLPYRAZOLO[1,5-A]PYRIMIDINE-7-HYDROXYLIC SALTS” (priority 2019, published 2021).
Where two headings read alike, the source gives them in different places.

How the values were obtained:
Type in all cases: cell-based
[1] = test system: Streptococcus pneumoniae 10351; assay: microbe, parasite or virus in culture; settings: Streptococcus pneumoniae, 10351; 37° C., 24 hours; read-out: MIC values of in vitro antibacterial test results
Peel fungus = assay: organism not typed; settings: 37° C., 24 hours; read-out: MIC values of in vitro antibacterial test results
[2] = test system: Staphylococcus aureus 29231; assay: microbe, parasite or virus in culture; settings: Staphylococcus aureus, 29231; 37° C., 24 hours; read-out: MIC values of in vitro antibacterial test results
Bacillus cereus 2 = assay: microbe, parasite or virus in culture; settings: Bacillus cereus, 2; 37° C., 24 hours; read-out: MIC values of in vitro antibacterial test results
[3] = test system: Staphylococcus aureus 43300(MRSA); assay: microbe, parasite or virus in culture; settings: Staphylococcus aureus, MRSA, 24 h, read-out: MIC values of in vitro antibacterial test results
[4] = test system: Streptococcus pneumoniae M2; assay: microbe, parasite or virus in culture; settings: Streptococcus pneumoniae, M2; 37° C., 24 hours; read-out: MIC values of in vitro antibacterial test results
[5] = test system: Staphylococcus aureus 703(MRSA); assay: microbe, parasite or virus in culture; settings: Staphylococcus aureus, MRSA, 24 h, read-out: MIC values of in vitro antibacterial test results
[6] = test system: F2518(VRE), Staphylococcus aureus resistant strain 43300(MRSA), 703 (MRSA), pneumococcal resistance bacteria 6303(PRSP); assay: microbe, parasite or virus in culture; settings: read-out: MIC values (μM)
Clostridium perfringens = assay: microbe, parasite or virus in culture; settings: Clostridium perfringens, 24 h, read-out: MIC values of in vitro antibacterial test results
[7] = test system: Enterococcus faecalis F2518(VRE); assay: microbe, parasite or virus in culture; settings: Enterococcus faecalis, VRE, 24 h, read-out: MIC values of in vitro antibacterial test results
[8] = test system: Bacillus anthracis Bacillus 1; assay: microbe, parasite or virus in culture; settings: Bacillus anthracis, 24 h, read-out: MIC values of in vitro antibacterial test results
[9] = test system: Enterococcus faecalis 29212; assay: microbe, parasite or virus in culture; settings: Enterococcus faecalis, 29212; 37° C., 24 hours; read-out: MIC values of in vitro antibacterial test results
Bacillus subtilis 168 = assay: microbe, parasite or virus in culture; settings: Bacillus subtilis, 168; 37° C., 24 hours; read-out: MIC values of in vitro antibacterial test results
[10] = test system: Streptococcus pneumoniae 6303 (PRSP); assay: microbe, parasite or virus in culture; settings: Streptococcus pneumoniae, PRSP, 24 h, read-out: MIC values of in vitro antibacterial test results
Oral Candida = assay: microbe, parasite or virus in culture; settings: Candida
[11] = test system: Streptococcus agalactia B group; assay: microbe, parasite or virus in culture; settings: Streptococcus; 37° C., 24 hours; read-out: MIC values of in vitro antibacterial test results
Diphtheria bacilli = assay: organism not typed; settings: 37° C., 24 hours; read-out: MIC values of in vitro antibacterial test results
[12] = 37° C., 24 hours, read-out: MIC values of in vitro antibacterial test results

SMILES	MIC [1]	MIC (Peel fungus)	MIC [2]	MIC (Bacillus cereus 2)	MIC [3]	MIC [4]	MIC [5]	MIC [6]	MIC (Clostridium perfringens)	MIC [7]	MIC [8]	MIC [9]	MIC (Bacillus subtilis 168)	MIC [10]	MIC (Oral Candida; [12])	MIC [11]	MIC (Diphtheria bacilli)	MIC (Oral Candida; read-out: MIC values (μM))
Cc1nn2c([O-])cc(-c3ccc(F)cc3F)nc2c1-c1ccc(F)cc1F.[Na+] [Compound 12, Sodium 3,5-bis(2,4-difluorophenyl)-2-methylpyrazolo[1,5-α]pyrimidin-7-olate]	> 150 µg/mL	< 150 µg/mL	> 150 µg/mL	< 100 µg/mL	< 150 µg/mL	< 150 µg/mL	< 150 µg/mL	< 100 µg/mL	> 150 µg/mL	< 150 µg/mL	> 150 µg/mL	< 150 µg/mL	> 150 µg/mL	> 150 µg/mL	< 150 µg/mL	> 150 µg/mL	> 150 µg/mL	
CC(=O)Oc1ccc(-c2cc([O-])n3nc(C)c(-c4ccc(F)cc4F)c3n2)cc1.[Na+] [Compound 13, Sodium 5-(4-acetoxyphenyl)-3-(2,4-difluorophenyl)-2-methylpyrazolo[1,5-α]pyrimidin-7-olate]	> 150 µg/mL	< 150 µg/mL	> 150 µg/mL	< 150 µg/mL	< 100 µg/mL	< 100 µg/mL	< 150 µg/mL	< 100 µg/mL	> 150 µg/mL	< 150 µg/mL	> 150 µg/mL	< 150 µg/mL	> 150 µg/mL	> 150 µg/mL	< 100 µg/mL	> 150 µg/mL	> 150 µg/mL	< 100 µg/mL
Cc1nn2c([O-])cc(-c3ccc(C(F)(F)F)nc3)nc2c1-c1ccc(F)cc1F.[Na+] [Compound 14, Sodium 3-(2,4-difluorophenyl)-2-methyl-5-(6-(trifluoromethyl)pyridin-3-yl)pyrazolo[1,5-α] pyrimidin-7-olate]	< 100 µg/mL	> 150 µg/mL	< 100 µg/mL	< 100 µg/mL	< 150 µg/mL	< 150 µg/mL	< 100 µg/mL	< 100 µg/mL	> 150 µg/mL	< 150 µg/mL	> 150 µg/mL	< 100 µg/mL	< 100 µg/mL	< 100 µg/mL	< 100 µg/mL	> 150 µg/mL	> 150 µg/mL	< 100 µg/mL
Cc1nn2c([O-])cc(-c3ccc(C#N)nc3)nc2c1-c1ccc(F)cc1F.[Na+] [Compound 15, sodium 5-(6-cyanopyridin-3-yl)-3-(2,4-difluorophenyl)-2-methylpyrazolo[1,5-α]pyrimidin-7-olate]	< 100 µg/mL	> 150 µg/mL	< 100 µg/mL	< 100 µg/mL	< 150 µg/mL	< 100 µg/mL	< 100 µg/mL	< 100 µg/mL	> 150 µg/mL	< 150 µg/mL	> 150 µg/mL	< 100 µg/mL	< 150 µg/mL	< 150 µg/mL	< 150 µg/mL	> 150 µg/mL	> 150 µg/mL	
Cc1nn2c([O-])cc(-c3ccc([N+](=O)[O-])nc3)nc2c1-c1ccc(F)cc1F.[Na+] [Compound 16, sodium 3-(2,4-difluorophenyl)-2-methyl-5-(6-nitropyridin-3-yl)pyrazolo[1,5-α]pyrimidin-7-olate]	< 100 µg/mL	> 150 µg/mL	< 100 µg/mL	< 100 µg/mL	< 150 µg/mL	< 150 µg/mL	< 100 µg/mL	< 100 µg/mL	> 150 µg/mL	< 150 µg/mL	> 150 µg/mL	< 100 µg/mL	< 150 µg/mL	< 100 µg/mL	< 100 µg/mL	> 150 µg/mL	> 150 µg/mL	< 100 µg/mL
COc1ccc(-c2cc([O-])n3nc(C)c(-c4ccc(F)cc4F)c3n2)cn1.[Na+] [Compound 17, sodium 3-(2,4-difluorophenyl)-5-(6-methoxypyridin-3-yl)-2-methylpyrazolo[1,5-α]pyrimidin-7-olate]	> 150 µg/mL	< 150 µg/mL	> 150 µg/mL	< 150 µg/mL	< 100 µg/mL	< 100 µg/mL	< 150 µg/mL	< 100 µg/mL	> 150 µg/mL	< 150 µg/mL	> 150 µg/mL	< 150 µg/mL	> 150 µg/mL	> 150 µg/mL	< 100 µg/mL	> 150 µg/mL	> 150 µg/mL	< 100 µg/mL
Cc1nn2c([O-])cc(-c3ccc(N(C)C)nc3)nc2c1-c1ccc(F)cc1F.[Na+] [Compound 18, Sodium 3-(2,4-difluorophenyl)-5-(6-(dimethylamino)pyridin-3-yl)-2-methylpyrazolo[1,5-α]pyrimidin-7-olate]	> 150 µg/mL	< 150 µg/mL	> 150 µg/mL	< 100 µg/mL	< 100 µg/mL	< 100 µg/mL	< 150 µg/mL	< 100 µg/mL	> 150 µg/mL	< 150 µg/mL	> 150 µg/mL	< 150 µg/mL	> 150 µg/mL	> 150 µg/mL	> 150 µg/mL	> 150 µg/mL	> 150 µg/mL	
Cc1nn2c([O-])cc(-c3ccc([O-])nc3)nc2c1-c1ccc(F)cc1F.[Na+].[Na+] [Compound 19, Disodium 3-(2,4-difluorophenyl)-2-methyl-5-(6-hydroxypyridin-3-yl)pyrazolo[1,5-α]pyrimidin-7-olate]	> 150 µg/mL	< 150 µg/mL	> 150 µg/mL	< 100 µg/mL	< 100 µg/mL	< 100 µg/mL	< 150 µg/mL	< 100 µg/mL	> 150 µg/mL	< 150 µg/mL	> 150 µg/mL	< 150 µg/mL	> 150 µg/mL	> 150 µg/mL	> 150 µg/mL	> 150 µg/mL	> 150 µg/mL	
Cc1nn2c([O-])cc(-c3ccc(C#N)cc3)nc2c1-c1ccc(F)cc1F.[K+] [Compound 20, Potassium 5-(4-cyanophenyl)-3-(2,4-difluorophenyl)-2-methylpyrazolo[1,5-α]pyrimidin-7-olate]	< 100 µg/mL	> 150 µg/mL	< 100 µg/mL	< 100 µg/mL	< 150 µg/mL	< 100 µg/mL	< 100 µg/mL	< 100 µg/mL	< 150 µg/mL	< 150 µg/mL	> 150 µg/mL	< 100 µg/mL	< 100 µg/mL	< 150 µg/mL	< 150 µg/mL	> 150 µg/mL	< 150 µg/mL	
Cc1nn2c([O-])cc(-c3ccc(C(=O)[O-])nc3)nc2c1-c1ccc(F)cc1F.[Na+].[Na+] [Compound 21, Disodium 5-(3-(2,4-difluorophenyl)-2-methyl-7-hydroxypyrazolo[1,5-α]pyrimidin-5-yl)picolinate]	> 150 µg/mL	< 150 µg/mL	> 150 µg/mL	< 150 µg/mL	< 100 µg/mL	< 100 µg/mL	< 150 µg/mL	< 100 µg/mL	> 150 µg/mL	< 150 µg/mL	> 150 µg/mL	< 150 µg/mL	> 150 µg/mL	> 150 µg/mL	< 100 µg/mL	> 150 µg/mL	> 150 µg/mL	< 100 µg/mL
Cc1nn2c([O-])cc(-c3ccc(C(F)(F)F)cc3)nc2c1-c1ccc(F)cc1F.[K+] [Compound 22, potassium 3-(2,4-difluorophenyl)-2-methyl-5-(4-(trifluoromethyl)phenyl)pyrazolo[1,5-α]pyrimidin-7-olate]	< 150 µg/mL	< 150 µg/mL	< 100 µg/mL	< 100 µg/mL	< 100 µg/mL	< 100 µg/mL	< 100 µg/mL	< 100 µg/mL	> 150 µg/mL	< 150 µg/mL	> 150 µg/mL	< 150 µg/mL	< 100 µg/mL	< 150 µg/mL	< 100 µg/mL	< 150 µg/mL	> 150 µg/mL	< 100 µg/mL
